# In US20050069522A1, “Combination pharmaceutical agents as inhibitors of HCV replication” (priority 2002, published 2005):
# Tested on: HCV replicon (HCV 1b-377-neo replicon cells)
# Test: HCV replicon cell line FRET assay
# Assay type: cell-based
# Details: Hepatitis C virus; HCV replicon cell line, FRET assay; read-out: Replicon Inhibition Range EC50
row,Compound,EC50
1,C[C@H](NC(=O)OCc1ccccc1)C(=O)Nc1ccc(C2S/C(=N\c3ccc(N4CCOCC4)cc3)N(Cc3cccnc3)C2=O)cc1 (stereo partly drawn) [Compound 80],100 to 1000 nM
2,COc1ccc(C(F)(F)F)cc1/N=C1\SC(c2ccc(NC(=O)[C@@H]3CCCN3C(=O)OCc3ccccc3)cc2)C(=O)N1Cc1ccco1 (stereo partly drawn) [Compound 49],100 to 1000 nM
3,C[C@H](NC(=O)Nc1ccccc1)C(=O)Nc1ccc(C2S/C(=N\c3cccc(F)c3)N(Cc3ccco3)C2=O)cc1 (stereo partly drawn) [Compound 134],1000 to 5000 nM
4,O=C(Nc1ccc(C2S/C(=N\c3cccnc3)N(Cc3cccc(F)c3)C2=O)cc1)[C@@H]1CCCN1C(=O)OCc1ccccc1 (stereo partly drawn) [Compound 77],< 100 nM
5,O=C(Nc1ccc(C2S/C(=N\c3ccc(N4CCOCC4)cc3)N(Cc3ccccn3)C2=O)cc1)[C@@H]1CCCN1C(=S)NCc1ccccc1 (stereo partly drawn) [Compound 136],< 100 nM
6,N#Cc1cccc(/N=C2\SC(c3ccc(NC(=O)[C@@H]4CCCN4C(=O)OCc4ccccc4)cc3)C(=O)N2Cc2ccco2)c1 (stereo partly drawn) [Compound 47],< 100 nM
7,C[C@H](NC(=O)Cc1ccccc1)C(=O)Nc1ccc(C2SC3=Nc4ccccc4CN3C2=O)cc1 (stereo partly drawn) [Compound 137],100 to 1000 nM
8,C[C@H](NC(=O)OCc1ccccc1)C(=O)Nc1ccc(C2S/C(=N\c3ccc(F)cc3Cl)N(Cc3ccco3)C2=O)cc1 (stereo partly drawn) [Compound 60],1000 to 5000 nM
9,C[C@H](NC(=O)OCc1ccccc1)C(=O)Nc1cccc(C2S/C(=N\c3cccc(F)c3)N(Cc3ccco3)C2=O)c1 (stereo partly drawn) [Compound 32],1000 to 5000 nM
10,O=C(Nc1ccc(C2S/C(=N\c3cccc(Cl)c3)N(Cc3ccco3)C2=O)cc1)[C@@H]1CCCN1C(=O)OCc1ccccc1 (stereo partly drawn) [Compound 53],100 to 1000 nM
11,C[C@H](NC(=O)CCc1ccccc1)C(=O)Nc1ccc(C2S/C(=N\c3cccc(F)c3)N(Cc3ccco3)C2=O)cc1 (stereo partly drawn) [Compound 125],1000 to 5000 nM
12,O=C(Nc1ccc(C2S/C(=N\c3cccc(F)c3)N(Cc3cccnc3)C2=O)cc1)[C@@H]1CCCN1C(=O)OCc1ccccc1 (stereo partly drawn) [Compound 15],< 100 nM
13,C[C@H](NC(=O)OCc1ccccc1)C(=O)Nc1ccc(C2S/C(=N\c3ccc(N4CCOCC4)cc3)N(Cc3ccco3)C2=O)cc1 (stereo partly drawn) [Compound 10],< 100 nM
14,CCOC(=O)/N=C1\SC(c2ccc(NC(=O)[C@@H]3CCCN3C(=O)OCc3ccccc3)cc2)C(=O)N1Cc1ccccn1 (stereo partly drawn) [Compound 91],< 100 nM
15,COc1ccc(/N=C2\SC(c3ccc(NC(=O)[C@@H]4CCCN4C(=O)OCc4ccccc4)cc3)C(=O)N2Cc2ccco2)cn1 (stereo partly drawn) [Compound 44],100 to 1000 nM
16,Cc1cnc(CN2C(=O)C(c3ccc(NC(=O)[C@@H]4CCCN4C(=O)OCc4ccccc4)cc3)S/C2=N\c2cccc(F)c2)cn1 (stereo partly drawn) [Compound 5],< 100 nM
17,CCOC(=O)/N=C1\SC(c2ccc(NC(=O)[C@H](C)NC(=O)OCc3ccccc3)cc2)C(=O)N1Cc1cccnc1 (stereo partly drawn) [Compound 92],< 100 nM
18,CC(C)/N=C1\SC(c2ccc(NC(=O)[C@H](C)NC(=O)[C@@H](O)c3ccccc3)cc2)C(=O)N1Cc1ccccn1 (stereo partly drawn) [Compound 120],< 100 nM
19,O=C(Nc1ccc(C2S/C(=N\c3ccc(N4CCOCC4)cc3)N(Cc3ccccn3)C2=O)cc1)[C@@H]1CCCN1C(=O)Cc1ccccc1Cl (stereo partly drawn) [Compound 108],< 100 nM
20,O=C(Nc1ccc(C2S/C(=N\c3cccc(F)c3)N(Cc3ccco3)C2=O)cc1)[C@@H]1CCCN1C(=O)COc1ccccc1 (stereo partly drawn) [Compound 130],100 to 1000 nM

row,Compound,EC50
1,O=C(Nc1ccc(C2S/C(=N\c3ccc(N4CCOCC4)cc3)N(Cc3ccccn3)C2=O)cc1)[C@@H]1CCCN1C(=O)C(F)c1ccccc1 (stereo partly drawn) [Compound 110],< 100 nM
2,O=C(Nc1ccc(C2S/C(=N\c3ccc(N4CCOCC4)cc3)N(Cc3ccccn3)C2=O)cc1)[C@@H]1CCCN1C(=O)C(c1ccccc1)c1ccccc1 (stereo partly drawn) [Compound 107],< 100 nM
3,O=C(Nc1ccc(C2S/C(=N\c3ccc(N4CCOCC4)cc3)N(Cc3ccccn3)C2=O)cc1)[C@@H]1CCCN1C(=O)NCc1ccccc1 (stereo partly drawn) [Compound 135],< 100 nM
4,C[C@H](NC(=O)OCc1ccccc1)C(=O)Nc1ccc(C2S/C(=N\c3cccc(F)c3)N(Cc3ccc(OC(F)(F)F)cc3)C2=O)cc1 (stereo partly drawn) [Compound 23],1000 to 5000 nM
5,CO[C@H](C(=O)N[C@@H](C)C(=O)Nc1ccc(C2S/C(=N\C(C)C)N(Cc3ccccn3)C2=O)cc1)c1ccccc1 (stereo partly drawn) [Compound 122],< 100 nM
6,CN=C1SC(c2ccc(NC(=O)[C@@H]3CCCN3C(=O)OCc3ccccc3)cc2)C(=O)N1Cc1ccccn1 (stereo partly drawn) [Compound 85],< 100 nM
7,O=C(Nc1ccc(C2S/C(=N\c3cccnc3)N(Cc3cccc(F)c3)C2=O)cc1)[C@@H]1CCCN1C(=O)Cc1ccccc1 (stereo partly drawn) [Compound 100],< 100 nM
8,C[C@@H](C(=O)N1CCC[C@H]1C(=O)Nc1ccc(C2S/C(=N\c3ccc(N4CCOCC4)cc3)N(Cc3ccccn3)C2=O)cc1)c1ccccc1 (stereo partly drawn) [Compound 115],< 100 nM
9,C/N=C1\SC(c2ccc(NC(=O)[C@@H]3CCCN3C(=O)Cc3ccccc3)cc2)C(=O)N1Cc1ccccn1 (stereo partly drawn) [Compound 101],< 100 nM
10,C[C@H](NC(=O)OCc1ccccc1)C(=O)Nc1ccc(C2S/C(=N\c3cccc(F)c3)N(Cc3cccnc3)C2=O)cc1 (stereo partly drawn) [Compound 27],< 100 nM
11,COc1ccc(/N=C2\SC(c3ccc(NC(=O)[C@@H]4CCCN4C(=O)OCc4ccccc4)cc3)C(=O)N2Cc2ccco2)cc1F (stereo partly drawn) [Compound 65],< 100 nM
12,CC(C)/N=C1\SC(c2ccc(NC(=O)[C@H](C)NC(=O)Cc3ccccc3)cc2)C(=O)N1Cc1ccccn1 (stereo partly drawn) [Compound 102],< 100 nM
13,COc1ccc(C(F)(F)F)cc1/N=C1\SC(c2ccc(NC(=O)[C@H](C)NC(=O)OCc3ccccc3)cc2)C(=O)N1Cc1ccco1 (stereo partly drawn) [Compound 50],100 to 1000 nM
14,O=C(Nc1ccc(C2S/C(=N\c3ccc(N4CCOCC4)cc3)N(Cc3ccccn3)C2=O)cc1)[C@@H]1CCCN1C(=O)C1(c2ccc(F)cc2)CCCC1 (stereo partly drawn) [Compound 105],100 to 1000 nM
15,COc1ccc(/N=C2\SC(c3ccc(NC(=O)[C@H](C)NC(=O)OCc4ccccc4)cc3)C(=O)N2Cc2ccco2)cc1F (stereo partly drawn) [Compound 66],100 to 1000 nM
16,O=C(Nc1ccc(C2S/C(=N\c3ccc(N4CCOCC4)cc3)N(Cc3ccncc3)C2=O)cc1)[C@@H]1CCCN1C(=O)OCc1ccccc1 (stereo partly drawn) [Compound 83],< 100 nM
17,Cc1cnc(CN2C(=O)C(c3ccc(NC(=O)[C@@H]4CCCN4C(=O)OCc4ccccc4)cc3)S/C2=N\c2ccc(N3CCOCC3)cc2)cn1 (stereo partly drawn) [Compound 70],< 100 nM
18,COc1cccc(CN2C(=O)C(c3ccc(NC(=O)[C@@H]4CCCN4C(=O)OCc4ccccc4)cc3)S/C2=N\c2cccc(F)c2)c1 (stereo partly drawn) [Compound 13],100 to 1000 nM
19,O=C(C(=O)N1CCC[C@H]1C(=O)Nc1ccc(C2S/C(=N\c3ccc(N4CCOCC4)cc3)N(Cc3ccccn3)C2=O)cc1)c1ccccc1 (stereo partly drawn) [Compound 119],< 100 nM
20,Cc1cnc(CN2C(=O)C(c3ccc(NC(=O)[C@@H]4CCC(=O)N4C(=O)OCc4ccccc4)cc3)S/C2=N\c2ccc(N3CCOCC3)cc2)cn1 (stereo partly drawn) [Compound 71],< 100 nM

row,Compound,EC50
1,O=C(Nc1ccc(C2S/C(=N\c3cccc(F)c3)N(CC3CCCO3)C2=O)cc1)[C@@H]1CCCN1C(=O)OCc1ccccc1 (stereo partly drawn) [Compound 14],< 100 nM
2,C[C@H](NC(=O)OCc1ccccc1)C(=O)Nc1ccc(C2S/C(=N\c3cccc4ccncc34)N(Cc3ccco3)C2=O)cc1 (stereo partly drawn) [Compound 12],< 100 nM
3,C[C@H](NC(=O)OCc1ccccc1)C(=O)Nc1ccc(C2S/C(=N\c3ccc4c(c3)CCC4)N(Cc3ccco3)C2=O)cc1 (stereo partly drawn) [Compound 39],1000 to 5000 nM
4,O=C(Nc1ccc(C2S/C(=N\c3cccc(F)c3)N(Cc3ccccn3)C2=O)cc1)[C@@H]1CCCN1C(=O)Cc1ccccc1 (stereo partly drawn) [Compound 97],< 100 nM
5,O=C(Nc1ccc(C2S/C(=N\c3cccc(F)c3)N(Cc3ccco3)C2=O)cc1)[C@@H]1CCCN1C(=O)Cc1ccncc1 (stereo partly drawn) [Compound 129],100 to 1000 nM
6,O=C(Nc1cccc(C2S/C(=N\c3cccc(F)c3)N(Cc3ccco3)C2=O)c1)[C@@H]1CCCN1C(=O)OCc1ccccc1 (stereo partly drawn) [Compound 33],1000 to 5000 nM
7,CO[C@H](C(=O)N1CCC[C@H]1C(=O)Nc1ccc(C2S/C(=N\c3ccc(N4CCOCC4)cc3)N(Cc3ccccn3)C2=O)cc1)c1ccccc1 (stereo partly drawn) [Compound 117],< 100 nM
8,O=C(Nc1ccc(C2S/C(=N\c3ccc(F)c(Cl)c3)N(Cc3ccco3)C2=O)cc1)[C@@H]1CCCN1C(=O)OCc1ccccc1 (stereo partly drawn) [Compound 51],1000 to 5000 nM
9,C[C@H](NC(=O)Cc1ccccc1)C(=O)Nc1ccc(C2S/C(=N\c3cccc(F)c3)N(Cc3ccccn3)C2=O)cc1 (stereo partly drawn) [Compound 96],< 100 nM
10,Cc1cc(F)ccc1/N=C1\SC(c2ccc(NC(=O)[C@@H]3CCCN3C(=O)OCc3ccccc3)cc2)C(=O)N1Cc1ccco1 (stereo partly drawn) [Compound 57],1000 to 5000 nM
11,C[C@H](NC(=O)OCc1ccccc1)C(=O)Nc1ccc(C2S/C(=N\c3ccc(F)c(C(F)(F)F)c3)N(Cc3ccco3)C2=O)cc1 (stereo partly drawn) [Compound 68],1000 to 5000 nM
12,Cc1cnc(CN2C(=O)C(c3ccc(NC(=O)[C@H](C)NC(=O)OCc4ccccc4)cc3)S/C2=N\c2cccc(F)c2)cn1 (stereo partly drawn) [Compound 6],< 100 nM
13,O=C(Nc1ccc(C2S/C(=N\c3cccc(OC(F)(F)F)c3)N(Cc3ccco3)C2=O)cc1)[C@@H]1CCCN1C(=O)OCc1ccccc1 (stereo partly drawn) [Compound 55],100 to 1000 nM
14,COc1ccc(CC(=O)N2CCC[C@H]2C(=O)Nc2ccc(C3S/C(=N\c4ccc(N5CCOCC5)cc4)N(Cc4ccccn4)C3=O)cc2)cc1 (stereo partly drawn) [Compound 106],100 to 1000 nM
15,O=C(Nc1ccc(C2S/C(=N\c3cccc(F)c3)N(Cc3ccc(OC(F)(F)F)cc3)C2=O)cc1)[C@@H]1CCCN1C(=O)OCc1ccccc1 (stereo partly drawn) [Compound 19],1000 to 5000 nM
16,O=C(Nc1ccc(C2S/C(=N\c3ccc(N4CCOCC4)cc3)N(Cc3ccccn3)C2=O)cc1)[C@@H]1CCCN1S(=O)(=O)Cc1ccccc1 (stereo partly drawn) [Compound 132],1000 to 5000 nM
17,CC(C)/N=C1\SC(c2ccc(NC(=O)[C@H](C)NC(=O)[C@@H](C)c3ccccc3)cc2)C(=O)N1Cc1ccccn1 (stereo partly drawn) [Compound 121],100 to 1000 nM
18,O=C(Nc1ccc(C2S/C(=N\c3ccc(N4CCOCC4)cc3)N(Cc3ccccn3)C2=O)cc1)[C@@H]1CCCN1C(=O)OCc1ccccc1 (stereo partly drawn) [Compound 73],< 100 nM
19,CC(C)(C)/N=C1\SC(c2ccc(NC(=O)[C@@H]3CCCN3C(=O)OCc3ccccc3)cc2)C(=O)N1Cc1ccccn1 (stereo partly drawn) [Compound 89],100 to 1000 nM
20,CCC(C)c1ccc(/N=C2\SC(c3ccc(NC(=O)[C@@H]4CCCN4C(=O)OCc4ccccc4)cc3)C(=O)N2Cc2ccco2)cc1 (stereo partly drawn) [Compound 45],100 to 1000 nM
